# Results taken from patent US7199127B2, “Purine nucleosides” (United States of America, Represented by the Secretary, …, priority 2002, dated 2007).
# Read-outs that look alike come from different tables or passages of the source.
# Columns and labels:
# [1] = molecular target: T1, rA1 adenosine receptor (Rattus norvegicus, UniProt P25099); experiment: Binding of [3H]PIA to A1 (rat); conditions: Cheng-Prusoff
# T1 construct: Striatal and forebrain tissues from Wistar rats were homogenized in ice-cold 50 mM Tris.HCl buffer; from tissue; host or cells: Wistar rat brain membranes (forebrain for A1 is my own knowledge)
# T1 sequence (P25099 1-326): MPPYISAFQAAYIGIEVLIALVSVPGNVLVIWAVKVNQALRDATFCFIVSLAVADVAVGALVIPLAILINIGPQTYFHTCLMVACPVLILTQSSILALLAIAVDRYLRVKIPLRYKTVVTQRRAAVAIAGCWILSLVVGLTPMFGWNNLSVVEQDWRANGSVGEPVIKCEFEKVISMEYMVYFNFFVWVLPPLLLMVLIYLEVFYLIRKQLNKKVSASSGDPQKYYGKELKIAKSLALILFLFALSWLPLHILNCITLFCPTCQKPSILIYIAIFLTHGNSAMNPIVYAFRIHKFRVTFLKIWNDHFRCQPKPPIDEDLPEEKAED
# Experimental: (§3) The binding of [^3H]PIA ((R)-N^6-(phenylisopropyl)adenosine) to A1 and the binding of [^3H]CGS21680(2-[[[4-(2–Carboxyethyl-phenyl)ethylamino]-5′-N-thylcarbamoyl)adenosine) to A2a were measured as described below. Adenosine deaminase was added while the membrane was cultured at 30° C. for 30 min with the radioactive ligand. The IC50 values of each compound were determined for at least 6 different concentrations.
# (§4) Striatal and forebrain tissues from Wistar rats were homogenized in ice-cold 50 mM Tris.HCl buffer, pH 7.4, using an electric homogenizer. The homogenate was centrifuged at 20,000 g for 10 min at 4° C., and the pellet was washed in fresh buffer. The final pellet was stored at −80° C. until the binding experiments.
# [2] = molecular target: T2, rA2a adenosine receptor (Rattus norvegicus, UniProt P30543); experiment: Binding of [3H]CGS21680 to A2a (rat); conditions: for % Displacement rA2a: 10 μM, [3H]CGS21680
# T2 construct: Striatal and forebrain tissues from Wistar rats were homogenized in ice-cold 50 mM Tris.HCl buffer; from tissue; host or cells: Wistar rat brain membranes (striatum for A2a is my own knowledge)
# Experimental: as §3, §4
# [3] = molecular target: T3, hA3 adenosine receptor (Homo sapiens, UniProt P0DMS8); experiment: [125I]AB-MECA binding to membranes of CHO cells that express the A3 receptor; conditions: for Ki: [125I]AB-MECA, CHO cell membrane, Cheng-Prusoff
# T3 construct: expressed in transfected cells; host or cells: CHO cells (ATCC CCL-61)
# T3 sequence (P0DMS8 1-318): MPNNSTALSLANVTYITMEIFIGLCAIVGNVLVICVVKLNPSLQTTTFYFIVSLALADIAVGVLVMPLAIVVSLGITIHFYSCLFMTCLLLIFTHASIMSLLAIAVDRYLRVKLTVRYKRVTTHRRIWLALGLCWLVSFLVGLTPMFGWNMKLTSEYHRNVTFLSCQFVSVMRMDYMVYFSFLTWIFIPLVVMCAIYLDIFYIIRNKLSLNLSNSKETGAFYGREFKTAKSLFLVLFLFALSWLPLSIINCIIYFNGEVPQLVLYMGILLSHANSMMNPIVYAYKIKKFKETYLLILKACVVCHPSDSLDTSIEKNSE
# Experimental: Chinese hamster ovary (CHO, ATCC; US Cell Strain Bank No. CCL-61) cells that express the A3 receptor were cultured at 37° C. in the presence of 5% carbon dioxide in F-12 culture medium (Gibco Company, USA) containing 10% fetal bovine serum (FBS) and penicillin/streptomycin (100 U/mL and 100 μg/mL), and used.
# The inhibitor is first dissolved in dimethyl sulfoxide and diluted with buffer solution. The final concentration of DMSO should not exceed 1%. After culturing at 37° C. for 1 h, it was quickly filtered using a cell collector (TOMTEC Company, USA) and a GF/B filter (Whatman Company, USA). The test tube was rinsed three times with 3 mL of buffer solution, and the radioactivity was measured using a γ-counter.
# CHO (Chinese hamster ovary) cells expressing recombinant the human A3AR were cultured in DMEM supplemented with 10% fetal bovine serum, 100 units/mL penicillin, 100 μg/mL streptomycin, 2 μmol/mL glutamine and 800 μg/mL geneticin. The CHO cells expressing rat A3ARs were cultured in DMEM and F 12 (1:1). Cells were harvested by trypsinization. After homogenization and suspension, cells were centrifuged at 500 g for 10 min, and the pellet was re-suspended in 50 mM Tris HCl buffer (pH 8.0) containing 10 mM MgCl2, 1 mM EDTA and 0.1 mg/mL CHAPS. The suspension was homogenized with an electric homogenizer for 10 sec, and was then re-centrifuged at 20,000 g for 20 min at 4° C. The resultant pellets were resuspended in buffer in the presence of 3 Units/mL adenosine deaminase, and the suspension was stored at −80° C. until the binding experiments. Striatal and forebrain tissues from Wistar rats were homogenized in ice-cold 50 mM Tris.HCl buffer, pH 7.4, using an electric homogenizer. The homogenate was centrifuged at 20,000 g for 10 min at 4° C., and the pellet was washed in fresh buffer. The final pellet was stored at −80° C. until the binding experiments.
# The mixtures were incubated at 37° C. for 60 min. Binding reactions were terminated by filtration through Whatman GF/B filters under reduced pressure using a MT-24 cell harvester (Brandell, Gaithersburgh, Md., USA). Filters were washed three times with 9 mL ice-cold buffer. Radioactivity was determined in a Beckman 5500γ-counter.
# [4] = molecular target: T4, hA1 adenosine receptor (Homo sapiens, UniProt P30542); experiment: Binding of [3H]PIA to A1 (human); conditions: Cheng-Prusoff
# T4 sequence (P30542 1-326): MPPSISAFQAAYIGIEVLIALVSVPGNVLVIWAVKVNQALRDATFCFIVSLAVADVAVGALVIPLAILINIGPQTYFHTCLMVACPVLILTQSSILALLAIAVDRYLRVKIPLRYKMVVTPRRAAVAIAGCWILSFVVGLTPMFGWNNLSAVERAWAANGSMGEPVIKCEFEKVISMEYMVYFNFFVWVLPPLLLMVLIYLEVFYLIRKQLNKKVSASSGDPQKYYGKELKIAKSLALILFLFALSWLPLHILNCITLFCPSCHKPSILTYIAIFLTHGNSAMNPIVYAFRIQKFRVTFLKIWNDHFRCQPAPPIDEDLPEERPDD
# Experimental: as §3
# [5] = molecular target: hA2a adenosine receptor (Homo sapiens, UniProt P29274); experiment: Binding of [3H]CGS21680 to A2a (human); conditions: for Ki: [3H]CGS21680, Cheng-Prusoff
# Experimental: as §3
# [6] = tested on: Sprague Dawley rats; experiment: Toxicity test in rats; format: in vivo; conditions: rats, 20, 10 and 1 mg/kg peritoneally, observed for 24 h
# Experimental: (§1) Animal studies were carried out to test the toxicity of the compounds pared in the present invention.
# (§2) 25±5 g ICR family mice (Joongang Study Animal) and 235±10 g specific pathogen free (SPF) Sprague Dawley rats (Joongang Study Animal) were divided into 3 groups.
# [7] = tested on: ICR family mice; experiment: Toxicity test in mice; format: in vivo; conditions: mice, 20, 10 and 1 mg/kg peritoneally, observed for 24 h
# Experimental: as §1, §2
# [8] = [3H]CGS21680, Cheng-Prusoff, read-out: Ki rA2a
# Chain of hA2a adenosine receptor (P29274 whole entry): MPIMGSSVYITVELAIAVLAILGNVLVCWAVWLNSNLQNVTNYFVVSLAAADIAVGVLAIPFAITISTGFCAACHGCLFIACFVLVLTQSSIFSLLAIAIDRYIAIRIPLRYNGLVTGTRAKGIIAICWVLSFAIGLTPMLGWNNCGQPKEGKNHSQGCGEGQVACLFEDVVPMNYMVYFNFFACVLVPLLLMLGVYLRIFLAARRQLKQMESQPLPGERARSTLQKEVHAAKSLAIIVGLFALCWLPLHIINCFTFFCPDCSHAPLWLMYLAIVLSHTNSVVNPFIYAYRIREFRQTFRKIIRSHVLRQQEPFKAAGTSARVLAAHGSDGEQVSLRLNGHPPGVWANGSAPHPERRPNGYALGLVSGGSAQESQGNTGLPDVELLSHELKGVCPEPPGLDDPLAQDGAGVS
# T2 sequence (P30543 whole entry): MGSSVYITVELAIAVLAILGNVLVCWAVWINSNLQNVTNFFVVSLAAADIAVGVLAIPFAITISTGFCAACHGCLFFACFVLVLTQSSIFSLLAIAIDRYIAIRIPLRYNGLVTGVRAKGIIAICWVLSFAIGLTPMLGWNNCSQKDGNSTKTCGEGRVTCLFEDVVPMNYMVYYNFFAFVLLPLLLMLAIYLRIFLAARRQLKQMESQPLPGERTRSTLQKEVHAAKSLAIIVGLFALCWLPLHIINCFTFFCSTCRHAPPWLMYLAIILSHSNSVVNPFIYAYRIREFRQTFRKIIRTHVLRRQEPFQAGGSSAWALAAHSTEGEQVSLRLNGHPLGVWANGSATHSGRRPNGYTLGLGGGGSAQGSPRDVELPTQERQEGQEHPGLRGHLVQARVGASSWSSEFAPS
Structure (SMILES),Ki [1] [nM],% Displacement rA2a [2] [%],"Ki [2, 8] [nM]",Ki [3] [nM],also measured
CNC(=O)[C@H]1S[C@@H](n2cnc3c(N)nc(Cl)nc32)[C@H](O)[C@@H]1O [Compound 29],294,<10,,0.4,Ki [4]: 89.2 nM; Ki [5]: 158 nM
"CNC(=O)[C@H]1S[C@@H](n2cnc3c(NC)nc(Cl)nc32)[C@H](O)[C@@H]1O [Compound 33, (2S,3S,4R,5R)-5-(2-chloro-6-methylaminopurin-9-yl)-3,4-dihydroxytetrahydrothiophene-2-carboxylic acid methyl amide]",198,,6340,,"Ki [4]: 1330 nM; % Displacement hA2a ([5]; 10 μM, [3H]CGS21680): 20%; deaths [6]: no deaths were observed; symptoms (weight increase, feed intake) versus control group [6]: no other observable symptoms; deaths [7]: no deaths were observed; symptoms (weight increase, feed intake) versus control group [7]: no other observable symptoms; A3 agonist activity ([3]; in words, compared with known compounds): most strong and selective A3 agonist activity among the known compounds"
CNC(=O)[C@H]1S[C@@H](n2cnc3c(NCc4cccc(I)c4)nc(Cl)nc32)[C@H](O)[C@@H]1O [Compound 36],140,,348,,Ki [5]: 223 nM

# More lines, main results first:
Ki [1] [nM],% Displacement rA2a [2] [%],"Ki [2, 8] [nM]",Ki [3] [nM],Structure (SMILES),also measured
188,<10,,,"CNC(=O)[C@]1(n2cnc3c(NCc4cccc(I)c4)nc(Cl)nc32)SC[C@H](O)[C@@H]1O [Compound 12, (2R,3S,4R)-2-[2-chloro-6-(3-iodobenzylamino)purin-9-yl)-3,4-dihydroxytetrahydrothiophene-2-carboxylic acid methyl amide]",melting point: 205 to 207 °C
127,,285,3.2,"OC[C@H]1S[C@@H](n2cnc3c(NCc4cccc(I)c4)nc(Cl)nc32)[C@H](O)[C@@H]1O [Compound 20, (2R,3R, 4S,5R)-2-[2-chloro-6-(3-iodobenzylamino)purin-9-yl]-5-hydroxymethyltetrahydrothiophene-3,4-diol]",melting point: 112 to 114 °C
780,<10,,0.8,"CNc1nc(Cl)nc2c1ncn2[C@@H]1S[C@H](CO)[C@@H](O)[C@H]1O [Compound 23, (2R,3R,4S,5R)-2-(2-chloro-6-methylaminopurin-9-yl)-5-hydroxymethyltetrahydrothiophene-3,4-diol]",
238,,,4.9,"Nc1nc(Cl)nc2c1ncn2[C@@H]1S[C@H](CO)[C@@H](O)[C@H]1O [Compound 25, (2R,3R,4S,5R)-2-(2-chloro-6-aminopurin-9-yl)-5-hydroxymethyltetrahygrothiophene-3,4-diol]",Ki [2]: 705 nM
